Patent publication US20120178742A1, “METABOTROPIC GLUTAMATE RECEPTOR MODULATORS” (MERZ PHARMA GmbH & CO. KGaA, priority 2009, published 2012)

biological target: T1, mGluR5 receptors (Rattus norvegicus, UniProt P31424); assay: Cytosolic calcium studies with cultured rat astrocytes; assay type: cell-based
T1 construct: Primary astrocyte cultures are prepared from cortices of newborn rats; endogenous in cells; host or cells: primary rat cortical astrocytes (Sprague-Dawley pups)
Experimental: Primary astrocyte cultures are prepared from cortices of newborn rats as described by Booher and Sensenbrenner (1972, Neurobiology 2(3):97-105). Briefly, Sprague-Dawley rat pups (2-4 d old) are decapitated and neocortices are dissected, disintegrated with a nylon filter (pore size 80 μm) and carefully triturated. The cell suspension is plated on poly-D-lysine pre-coated flasks (Costar, Netherlands) and cultivated in Dulbecco's Modified Eagle's Medium (DMEM, Invitrogen, Germany) supplemented with 10% foetal calf serum (FCS, Sigma, Germany), 4 mM glutamine and […] gentamycin (both Biochrom, Germany) at 37° C. in a humidified atmosphere of 5% CO2/95% air for 7 days with exchanging the medium at day 2 and 6.
After 7 days in vitro (DIV), cells are shaken overnight at 250 rpm to remove oligodendrocytes and microglia. The next day, astrocytes are rinsed twice with CMF-PBS (calcium- and magnesium-free phosphate buffered saline, Biochrom, Germany), trypsinized and subplated on poly-D-lysine pre-coated 96-well plates (Greiner, Germany) at a density of 40,000 cells/well. 24 h after establishing the secondary culture the astrocytes are rinsed with PBS″ (phosphate buffered saline, Biochrom, Germany) and fed with astrocyte-defined medium (ADM) consisting of DMEM containing 1× G5-supplement (Invitrogen, Germany), 0.5 μg/ml heparan sulfate, and 1.5 μg/ml fibronectin (both Sigma, Germany) (Miller et al., (1993) Brain Res. 618(1):175-8). 3 days later the medium is exchanged and the cells incubated for another 2-3 days, so that at the time of experiments astrocytes are 14-15 DIV.
The increase of cytosolic calcium after stimulation with the mGluR5 agonist L-quisqualate is measured using a fluorometric imaging plate reader (FLIPR) and the Ca-Kit (both Molecular Devices). Prior to addition of agonist or antagonist the medium is aspirated and cells are loaded for 2 h at RT with 150 μl of loading buffer consisting of Ca-sensitive dye reconstituted in sodium chloride (123 mM), potassium chloride (5.4 mM), magnesium chloride (0.8 mM), calcium chloride (1.8 mM), D-glucose (15 mM), and HEPES (20 mM), pH 7.3. Subsequently, plates are transferred to FLIPR to detect calcium increase with the addition of L-quisqualate (100 nM) measured as relative fluorescence units (RFU). If antagonists are tested, these compounds are pre-incubated for 10 minutes at RT before addition of the respective agonist.
Thereafter, concentration-response curves for the positive modulator are performed in the presence of a fixed concentration of quisqualate showing the biggest window for potentiation (normally 10-30 nM).
(§1) The fluorescence signal increase after addition of agonist reflects the increase of cytosolic calcium. Inconsistencies in the amount of cells per well are normalised by using the spatial uniformity correction of the FLIPR operating software Screenworks. The mean of replicated temporal data (n=3-5) is calculated and used for graphical representation. For the evaluation of the pharmacology, the calcium changes in response to different concentrations of agonist or antagonist are determined using a maximum minus minimum (MaxMin) calculation.
(§2) All responses (RFU-values) are determined as percentage of control (=maximum response). EC50 and IC50 are calculated according the logistic equation using Prism 4.0 (GraphPad Software, USA).

T1 sequence (P31424 21-1203): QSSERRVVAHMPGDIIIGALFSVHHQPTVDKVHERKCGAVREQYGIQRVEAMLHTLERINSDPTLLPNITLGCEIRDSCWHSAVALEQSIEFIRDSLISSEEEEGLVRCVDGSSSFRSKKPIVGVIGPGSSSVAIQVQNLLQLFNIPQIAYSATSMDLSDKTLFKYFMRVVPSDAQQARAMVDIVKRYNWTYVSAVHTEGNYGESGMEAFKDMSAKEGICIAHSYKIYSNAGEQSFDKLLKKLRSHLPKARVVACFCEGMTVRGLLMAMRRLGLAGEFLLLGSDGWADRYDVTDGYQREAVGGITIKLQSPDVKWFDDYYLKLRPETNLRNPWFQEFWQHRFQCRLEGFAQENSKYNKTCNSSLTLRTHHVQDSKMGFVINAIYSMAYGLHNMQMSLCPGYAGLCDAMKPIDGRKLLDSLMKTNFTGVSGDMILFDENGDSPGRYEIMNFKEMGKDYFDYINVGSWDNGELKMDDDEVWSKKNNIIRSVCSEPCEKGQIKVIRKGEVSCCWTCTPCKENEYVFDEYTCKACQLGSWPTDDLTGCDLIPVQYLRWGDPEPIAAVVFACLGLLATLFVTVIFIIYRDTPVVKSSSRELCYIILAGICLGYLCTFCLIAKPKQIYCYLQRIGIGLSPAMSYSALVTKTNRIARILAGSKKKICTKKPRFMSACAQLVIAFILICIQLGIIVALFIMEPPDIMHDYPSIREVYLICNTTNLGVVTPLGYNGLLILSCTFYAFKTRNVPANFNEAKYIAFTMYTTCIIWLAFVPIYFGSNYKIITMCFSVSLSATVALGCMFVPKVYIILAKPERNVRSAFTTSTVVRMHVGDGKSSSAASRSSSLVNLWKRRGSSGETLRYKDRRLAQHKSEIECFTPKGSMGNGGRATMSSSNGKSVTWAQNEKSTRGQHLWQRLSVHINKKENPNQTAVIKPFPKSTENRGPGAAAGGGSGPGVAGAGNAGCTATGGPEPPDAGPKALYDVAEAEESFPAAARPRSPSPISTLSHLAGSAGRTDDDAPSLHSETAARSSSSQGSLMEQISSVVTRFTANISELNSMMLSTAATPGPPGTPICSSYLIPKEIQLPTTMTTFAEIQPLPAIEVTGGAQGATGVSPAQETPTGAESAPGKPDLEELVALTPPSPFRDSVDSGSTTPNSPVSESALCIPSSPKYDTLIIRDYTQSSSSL

| EC50 [µM] | SMILES |
| --- | --- |
| 0.65 | C(#Cc1cnc2nccnc2c1)C1=CCCCC1 [Example 40, 7-Cyclohex-1-enylethynyl-pyrido[2,3-b]pyrazine] |
| 0.73 | Fc1ccc(C#Cc2cnc3nccnc3c2)cc1 [Example 62, 7-(4-Fluoro-phenylethynyl)-pyrido[2,3-b]pyrazine] |
| 0.024 | Fc1ccccc1C#Cc1cnc2cccnc2c1 [Example 68, 3-(2-Fluoro-phenylethynyl)-[1,5]naphthyridine] |
| 0.0023 | Cc1cccc(C#Cc2cnc3cccnc3c2)c1 [Example 95, 3-(m-Tolylethynyl)-[1,5]naphthyridine] |
| 0.005 | C(#Cc1cnc2cccnc2c1)c1ccccc1 [Example 41, 3-Phenylethynyl-[1,5]naphthyridine] |
| 1 | Oc1ccc(C#Cc2cnc3nccnc3c2)cc1 [Example 90, 4-(Pyrido[2,3-b]pyrazin-7-ylethynyl)phenol] |
| 1.1 | O=C(c1nc2ccc(C#Cc3ccccc3F)cn2n1)N1CCCCC1 [Example 58, [6-(2-Fluoro-phenylethynyl)-[1,2,4]triazolo[1,5-a]pyridin-2-yl]-piperidin-1-yl-methanone] |

biological target: T2, human metabotropic glutamate receptor mGluR5 (Homo sapiens, UniProt P41594); assay: Cytosolic calcium studies with stably transfected cells (CHO-K1); assay type: cell-based
T2 construct: expressed in transfected cells; host or cells: CHO-K1
Experimental: Functional Assay of mGluR5 Receptors Cytosolic Calcium Studies with Stably Transfected Cells
Chinese hamster ovary cells (CHO-K1 cells), stably transfected for inducible expression of a human metabotropic glutamate receptor mGluR5, are seeded into black clear bottom 96 well plates at a density of 35.000 cells per well. The standard growth medium used (Dulbecco's modified Eagle Medium, DMEM plus L-proline) contains the appropriate inducer isopropyl-β-D-thiogalactopyranosid (IPTG) to achieve optimal receptor expression. One day after seeding the growth medium is exchanged for reconstituted Ca-Kit (Molecular Devices, USA) and incubated for one hour. Ca-Kit is reconstituted in an assay buffer containing 20 mM HEPES pH 7.4, glutamic-pyruvate transaminase, pyridoxal phosphate and sodium pyruvate in Hank's balanced salt solution (HBBS). Agonistic compounds to the receptor elicit increases in cytosolic calcium which can be measured as increases in fluorescence signals by use of a fluorescence imaging plate reader (Molecular Devices). […] Similarly, for the characterization of positive allosteric modulators, a dilution series of the test compound is added online to 384 well plates containing the described dye loaded cells and after a preincubation time of 5 minutes stimulated by a basal cell concentration of the agonist L-glutamate giving about 20% of the maximal signal.
as §1, §2

T2 sequence (P41594 21-1212): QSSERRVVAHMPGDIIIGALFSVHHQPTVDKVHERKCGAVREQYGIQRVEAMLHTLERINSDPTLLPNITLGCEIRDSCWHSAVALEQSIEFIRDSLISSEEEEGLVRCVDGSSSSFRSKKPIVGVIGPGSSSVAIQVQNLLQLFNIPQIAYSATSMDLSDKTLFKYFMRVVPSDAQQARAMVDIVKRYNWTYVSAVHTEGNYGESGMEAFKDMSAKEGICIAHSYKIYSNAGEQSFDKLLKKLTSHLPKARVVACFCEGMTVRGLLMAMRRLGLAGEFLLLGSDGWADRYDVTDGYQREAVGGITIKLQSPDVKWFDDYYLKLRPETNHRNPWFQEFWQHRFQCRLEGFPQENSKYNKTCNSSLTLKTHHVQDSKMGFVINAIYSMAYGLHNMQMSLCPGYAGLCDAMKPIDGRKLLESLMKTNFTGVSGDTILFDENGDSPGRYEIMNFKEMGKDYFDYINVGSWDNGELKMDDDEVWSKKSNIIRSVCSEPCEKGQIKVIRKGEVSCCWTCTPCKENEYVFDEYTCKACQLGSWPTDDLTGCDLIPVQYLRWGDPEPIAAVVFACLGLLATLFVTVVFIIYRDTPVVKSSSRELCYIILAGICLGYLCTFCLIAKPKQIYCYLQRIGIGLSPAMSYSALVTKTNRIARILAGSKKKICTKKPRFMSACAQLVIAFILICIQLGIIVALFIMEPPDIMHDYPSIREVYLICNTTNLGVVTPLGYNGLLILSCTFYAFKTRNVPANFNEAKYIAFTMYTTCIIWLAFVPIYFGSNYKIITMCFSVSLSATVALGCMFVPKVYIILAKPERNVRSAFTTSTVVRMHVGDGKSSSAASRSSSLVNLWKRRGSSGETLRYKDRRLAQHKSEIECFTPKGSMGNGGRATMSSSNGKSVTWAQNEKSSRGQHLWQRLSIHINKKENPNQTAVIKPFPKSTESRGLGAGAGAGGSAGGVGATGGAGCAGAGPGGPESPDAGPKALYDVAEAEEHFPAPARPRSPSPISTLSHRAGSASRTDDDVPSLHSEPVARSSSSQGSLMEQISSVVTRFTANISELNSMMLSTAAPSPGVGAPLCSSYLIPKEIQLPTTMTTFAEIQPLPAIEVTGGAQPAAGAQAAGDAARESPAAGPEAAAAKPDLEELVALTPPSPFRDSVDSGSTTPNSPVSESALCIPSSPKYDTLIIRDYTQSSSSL

| EC50 [µM] | SMILES |
| --- | --- |
| 0.12 | C(#Cc1cnc2nccnc2c1)C1=CCCCC1 [Example 40, 7-Cyclohex-1-enylethynyl-pyrido[2,3-b]pyrazine] |
| 0.69 | Cc1ccc(C#Cc2cnc3cccnc3c2)c(F)c1 [Example 115, 3-((2-Fluoro-4-methylphenyl)ethynyl)-[1,5]naphthyridine] |
| 0.55 | Fc1ccc(C#Cc2cnc3nccnc3c2)cc1 [Example 62, 7-(4-Fluoro-phenylethynyl)-pyrido[2,3-b]pyrazine] |
| 1.7 | Fc1cccc(F)c1C#Cc1cnc2ncsc2c1 [Example 78, 6-((2,6-Difluorophenyl)ethynyl)thiazolo[4,5-b]pyridine] |
| 0.019 | Fc1ccccc1C#Cc1cnc2cccnc2c1 [Example 68, 3-(2-Fluoro-phenylethynyl)-[1,5]naphthyridine] |
| 0.077 | Cc1ccc(C#Cc2cnc3ccnn3c2)cc1 [Example 9, 6-p-Tolylethynyl-pyrazolo[1,5-a]pyrimidine] |
| 0.0055 | Cc1cccc(C#Cc2cnc3cccnc3c2)c1 [Example 95, 3-(m-Tolylethynyl)-[1,5]naphthyridine] |
| 6.9 | O=C(c1nc2ccc(C#Cc3ccc(F)cc3)cn2n1)N1CCCCC1 [Example 59, [6-(4-Fluoro-phenylethynyl)-[1,2,4]triazolo[1,5-a]pyridin-2-yl]-piperidin-1-yl-methanone] |
| 0.43 | Fc1cccc(C#Cc2ccc3ncnn3c2)c1 [Example 53, 6-(3-Fluoro-phenylethynyl)-[1,2,4]triazolo[1,5-a]pyridine] |
| 1.2 | O=C(c1nc2ccc(C#Cc3cccc(F)c3)cn2n1)N1CCCCC1 [Example 57, [6-(3-Fluoro-phenylethynyl)-[1,2,4]triazolo[1,5-a]pyridin-2-yl]-piperidin-1-yl-methanone] |
| 1 | Fc1ccccc1C#Cc1cnc2ncnn2c1 [Example 48, 6-(2-Fluoro-phenylethynyl)-[1,2,4]triazolo[1,5-a]pyrimidine] |
| 3.5 | Fc1ccc(C#Cc2cnc3nccnc3c2)c(F)c1 [Example 109, 7-((2,4-Difluorophenyl)ethynyl)pyrido[2,3-b]pyrazine] |
| 0.2 | Fc1cc(F)cc(C#Cc2cnc3ccnn3c2)c1 [Example 11, 6-(3,5-Difluoro-phenylethynyl)-pyrazolo[1,5-a]pyrimidine] |
| 0.28 | COc1cnc2ncc(C#Cc3ccccc3)cc2n1 [Example 92, 2-Methoxy-7-(phenylethynyl)pyrido[2,3-b]pyrazine] |
| 0.34 | O=C(c1cc2ncc(C#Cc3ccccc3)cn2n1)N1CCC(c2ccccc2)CC1 [Example 18, (6-Phenylethynyl-pyrazolo[1,5-a]pyrimidin-2-yl)-(4-phenyl-piperidin-1-yl)-methanone] |
| 4.1 | Fc1cc(F)cc(C#Cc2cnc3nccnc3c2)c1 [Example 108, 7-((3,5-Difluorophenyl)ethynyl)pyrido[2,3-b]pyrazine] |
| 1.4 | Fc1ccc(C#Cc2cnc3ncoc3c2)cc1 [Example 70, 6-(4-Fluoro-phenylethynyl)-oxazolo[4,5-b]pyridine] |
| 0.0063 | C(#Cc1cnc2ncoc2c1)C1=CCCCC1 [Example 71, 6-Cyclohex-1-enylethynyl-oxazolo[4,5-b]pyridine] |

| EC50 [µM] | SMILES |
| --- | --- |
| 1.1 | Cc1ccccc1C#Cc1cnc2nccnc2c1 [Example 87, 7-(o-Tolylethynyl)-pyrido[2,3-b]pyrazine] |
| 0.52 | Clc1cc(Cl)cc(C#Cc2cnc3ccnn3c2)c1 [Example 2, 6-(3,5-Dichloro-phenylethynyl)-pyrazolo[1,5-a]pyrimidine] |
| 0.26 | O=C(c1cc2ncc(C#Cc3ccccc3)cn2n1)N1CCCCCC1 [Example 17, Azepan-1-yl-(6-phenylethynyl-pyrazolo[1,5-a]pyrimidin-2-yl)-methanone] |
| 0.12 | C(#Cc1cnc2ccnn2c1)Cc1ccccc1 [Example 14, 6-(3-Phenyl-prop-1-ynyl)-pyrazolo[1,5-a]pyrimidine] |
| 0.12 | Clc1cccc(C#Cc2cnc3nccnc3c2)c1 [Example 111, 7-((3-Chlorophenyl)ethynyl)pyrido[2,3-b]pyrazine] |
| 0.029 | C(#Cc1ccc2ccnn2c1)C1=CCCCC1 [Example 30, 6-Cyclohex-1-enylethynyl-pyrazolo[1,5-a]pyridine] |
| 0.94 | O=C(c1nc2ncc(C#Cc3ccccc3)cn2n1)N1CCCCC1 [Example 36, (6-Phenylethynyl-[1,2,4]triazolo[1,5-a]pyrimidin-2-yl)-piperidin-1-yl-methanone] |
| 1.8 | Fc1ccc(C#Cc2cnc3ncnn3c2)cc1 [Example 49, 6-(4-Fluoro-phenylethynyl)-[1,2,4]triazolo[1,5-a]pyrimidine] |
| 0.61 | O=C(c1cc2ncc(C#Cc3ccccc3)cn2n1)N1CCCC1 [Example 19, (6-Phenylethynyl-pyrazolo[1,5-a]pyrimidin-2-yl)-pyrrolidin-1-yl-methanone] |
| 1.3 | CC(C)(C)OC(=O)N1CC=C(C#Cc2cnc3ccnn3c2)CC1 [Example 12, 4-Pyrazolo[1,5-a]pyrimidin-6-ylethynyl-3,6-dihydro-2H-pyridine-1-carboxylic acid tert-butyl ester] |
| 0.057 | Cn1cnc2cc(C#Cc3ccc(F)cc3)cnc21 [Example 106, 6-(4-Fluoro-phenylethynyl)-3-methyl-3H-imidazo[4,5-b]pyridine] |
| 0.021 | Cn1cnc2cc(C#Cc3cccc(F)c3)cnc21 [Example 105, 6-(3-Fluoro-phenylethynyl)-3-methyl-3H-imidazo[4,5-b]pyridine] |
| 0.47 | C(#Cc1cnc2ncoc2c1)c1ccccc1 [Example 42, 6-Phenylethynyl-oxazolo[4,5-b]pyridine] |
| 0.078 | C(#Cc1ccc2ccnn2c1)c1ccccc1 [Example 29, 6-Phenylethynyl-pyrazolo[1,5-a]pyridine] |
| 0.41 | C(#Cc1ccc2nc(-c3ccco3)nn2c1)c1ccccc1 [Example 84, 2-Furan-2-yl-6-phenylethynyl-[1,2,4]triazolo[1,5-a]pyridine] |
| 3.7 | Fc1cccc(F)c1C#Cc1cnc2nccnc2c1 [Example 107, 7-((2,6-Difluorophenyl)ethynyl)pyrido[2,3-b]pyrazine] |
| 0.47 | C(#Cc1cnc2cccnc2c1)c1cccnc1 [Example 101, 3-(Pyridin-3-ylethynyl)-1,5-naphthyridine] |
| 0.093 | Fc1ccc(-c2cc3ncc(C#Cc4ccccc4)cn3n2)cc1 [Example 28, 2-(4-Fluoro-phenyl)-6-phenylethynyl-pyrazolo[1,5-a]pyrimidine] |
